Laboratory results taken from ChEMBL document CHEMBL4507291 (2021).

Key:
[1] = biological target: AP2-associated protein kinase 1 (Homo sapiens) (UniProt Q2M2I8)
[2] = biological target: 5'-AMP-activated protein kinase catalytic subunit alpha-1 (Homo sapiens) (UniProt Q13131)
[3] = biological target: Bone morphogenetic protein receptor type-2 (Homo sapiens) (UniProt Q13873)
[4] = biological target: Cyclin-dependent kinase 19 (Homo sapiens) (UniProt Q9BWU1)
[5] = biological target: Citron Rho-interacting kinase (Homo sapiens) (UniProt O14578)
Chain of Citron Rho-interacting kinase (Homo sapiens) (O14578 whole entry): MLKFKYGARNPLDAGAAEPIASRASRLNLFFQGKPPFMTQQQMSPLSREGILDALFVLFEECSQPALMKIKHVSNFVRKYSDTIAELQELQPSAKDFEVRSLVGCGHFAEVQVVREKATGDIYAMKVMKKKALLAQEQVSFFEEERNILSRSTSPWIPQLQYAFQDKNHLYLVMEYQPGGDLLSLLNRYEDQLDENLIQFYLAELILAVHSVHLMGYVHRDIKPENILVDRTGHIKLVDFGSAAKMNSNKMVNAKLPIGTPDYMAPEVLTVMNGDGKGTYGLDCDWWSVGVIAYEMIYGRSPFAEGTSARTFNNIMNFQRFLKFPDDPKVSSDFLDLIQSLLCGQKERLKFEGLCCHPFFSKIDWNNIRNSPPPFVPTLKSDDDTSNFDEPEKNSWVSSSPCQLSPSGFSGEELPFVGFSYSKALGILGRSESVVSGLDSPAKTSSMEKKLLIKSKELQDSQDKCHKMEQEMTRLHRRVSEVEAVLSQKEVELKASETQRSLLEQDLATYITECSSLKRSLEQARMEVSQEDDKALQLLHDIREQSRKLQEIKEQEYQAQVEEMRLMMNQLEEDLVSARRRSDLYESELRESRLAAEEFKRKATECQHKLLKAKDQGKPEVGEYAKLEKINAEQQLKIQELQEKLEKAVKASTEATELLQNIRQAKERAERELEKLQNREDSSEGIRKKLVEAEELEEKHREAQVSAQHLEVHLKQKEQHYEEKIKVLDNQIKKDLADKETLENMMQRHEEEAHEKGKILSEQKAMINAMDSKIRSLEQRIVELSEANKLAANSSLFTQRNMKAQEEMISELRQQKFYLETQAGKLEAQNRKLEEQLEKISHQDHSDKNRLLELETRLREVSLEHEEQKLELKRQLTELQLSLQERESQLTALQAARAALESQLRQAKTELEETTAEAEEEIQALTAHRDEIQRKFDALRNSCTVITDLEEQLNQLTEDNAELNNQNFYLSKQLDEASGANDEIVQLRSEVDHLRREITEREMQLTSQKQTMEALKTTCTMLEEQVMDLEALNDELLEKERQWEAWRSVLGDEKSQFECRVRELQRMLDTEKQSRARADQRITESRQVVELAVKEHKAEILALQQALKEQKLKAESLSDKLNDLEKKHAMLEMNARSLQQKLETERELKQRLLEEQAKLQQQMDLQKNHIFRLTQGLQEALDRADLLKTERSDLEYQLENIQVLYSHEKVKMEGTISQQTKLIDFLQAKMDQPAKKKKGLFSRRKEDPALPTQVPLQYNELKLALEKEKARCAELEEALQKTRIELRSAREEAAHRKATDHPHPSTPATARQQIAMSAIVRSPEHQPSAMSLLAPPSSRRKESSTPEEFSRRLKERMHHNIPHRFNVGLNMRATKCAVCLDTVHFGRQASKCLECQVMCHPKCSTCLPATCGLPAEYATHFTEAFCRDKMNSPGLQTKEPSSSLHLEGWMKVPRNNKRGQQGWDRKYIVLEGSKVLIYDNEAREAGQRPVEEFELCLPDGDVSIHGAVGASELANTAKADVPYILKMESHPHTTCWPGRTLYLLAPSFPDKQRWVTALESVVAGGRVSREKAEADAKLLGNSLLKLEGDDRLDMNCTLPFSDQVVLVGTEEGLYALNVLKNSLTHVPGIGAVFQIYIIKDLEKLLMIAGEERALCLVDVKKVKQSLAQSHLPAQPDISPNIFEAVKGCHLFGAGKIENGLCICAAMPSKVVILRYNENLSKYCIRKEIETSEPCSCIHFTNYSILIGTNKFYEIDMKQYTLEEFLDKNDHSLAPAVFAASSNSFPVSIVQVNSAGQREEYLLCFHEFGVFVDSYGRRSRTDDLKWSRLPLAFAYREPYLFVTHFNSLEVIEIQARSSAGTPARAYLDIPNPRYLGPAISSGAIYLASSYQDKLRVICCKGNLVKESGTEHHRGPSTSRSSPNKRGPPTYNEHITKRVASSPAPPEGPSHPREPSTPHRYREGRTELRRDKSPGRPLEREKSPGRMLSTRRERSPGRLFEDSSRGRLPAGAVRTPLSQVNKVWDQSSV

[6] = biological target: Serine/threonine-protein kinase DCLK3 (Homo sapiens) (UniProt Q9C098)
[7] = test system: Epidermal growth factor receptor (Homo sapiens), P00533 [UNDEFINED MUTATION]
[8] = test system: Epidermal growth factor receptor (Homo sapiens), P00533 [L858R,T790M]
[9] = biological target: T1, Ephrin type-B receptor 2 (Homo sapiens) (UniProt P29323)
T1 sequence (whole entry): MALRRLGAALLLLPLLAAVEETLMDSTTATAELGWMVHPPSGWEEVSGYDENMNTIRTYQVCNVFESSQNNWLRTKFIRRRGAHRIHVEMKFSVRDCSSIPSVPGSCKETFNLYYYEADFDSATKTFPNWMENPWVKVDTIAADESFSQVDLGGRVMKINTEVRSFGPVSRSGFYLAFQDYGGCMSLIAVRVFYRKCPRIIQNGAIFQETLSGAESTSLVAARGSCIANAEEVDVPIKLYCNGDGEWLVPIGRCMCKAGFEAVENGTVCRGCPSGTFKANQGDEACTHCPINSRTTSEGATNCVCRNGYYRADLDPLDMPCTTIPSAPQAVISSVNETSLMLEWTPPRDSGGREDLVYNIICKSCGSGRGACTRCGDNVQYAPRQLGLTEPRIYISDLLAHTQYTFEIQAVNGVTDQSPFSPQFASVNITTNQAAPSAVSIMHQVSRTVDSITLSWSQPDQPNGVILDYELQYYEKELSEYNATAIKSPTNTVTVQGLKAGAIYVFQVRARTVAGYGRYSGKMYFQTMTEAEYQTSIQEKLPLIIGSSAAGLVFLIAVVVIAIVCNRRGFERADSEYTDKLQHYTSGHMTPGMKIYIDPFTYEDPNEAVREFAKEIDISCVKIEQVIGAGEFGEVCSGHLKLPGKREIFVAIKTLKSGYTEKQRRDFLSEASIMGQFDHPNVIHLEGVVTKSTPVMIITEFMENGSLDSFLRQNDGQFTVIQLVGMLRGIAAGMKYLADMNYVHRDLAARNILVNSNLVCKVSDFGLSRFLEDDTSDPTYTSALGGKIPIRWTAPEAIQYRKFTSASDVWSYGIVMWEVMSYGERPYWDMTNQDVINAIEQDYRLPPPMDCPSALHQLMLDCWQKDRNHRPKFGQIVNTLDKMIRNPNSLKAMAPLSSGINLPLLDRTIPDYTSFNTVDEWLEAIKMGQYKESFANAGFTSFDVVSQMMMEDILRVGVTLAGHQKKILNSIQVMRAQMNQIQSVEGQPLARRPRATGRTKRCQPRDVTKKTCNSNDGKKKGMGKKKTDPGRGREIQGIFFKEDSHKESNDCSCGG

[10] = biological target: Mitogen-activated protein kinase 6 (Homo sapiens) (UniProt Q16659)
[11] = test system: Receptor-type tyrosine-protein kinase FLT3 (Homo sapiens), P36888 [UNDEFINED MUTATION]
[12] = test system: Receptor-type tyrosine-protein kinase FLT3 (Homo sapiens), P36888 [R834Q]
[13] = biological target: LIM domain kinase 1 (Homo sapiens) (UniProt P53667)
[14] = biological target: Serine/threonine-protein kinase Nek4 (Homo sapiens) (UniProt P51957)
[15] = biological target: Serine/threonine-protein kinase SBK1 (Homo sapiens) (UniProt Q52WX2)
[16] = biological target: Testis-specific serine/threonine-protein kinase 3 (Homo sapiens) (UniProt Q96PN8)
[17] = biological target: Non-receptor tyrosine-protein kinase TYK2 (Homo sapiens) (UniProt P29597)
Chain of Non-receptor tyrosine-protein kinase TYK2 (Homo sapiens) (P29597 whole entry): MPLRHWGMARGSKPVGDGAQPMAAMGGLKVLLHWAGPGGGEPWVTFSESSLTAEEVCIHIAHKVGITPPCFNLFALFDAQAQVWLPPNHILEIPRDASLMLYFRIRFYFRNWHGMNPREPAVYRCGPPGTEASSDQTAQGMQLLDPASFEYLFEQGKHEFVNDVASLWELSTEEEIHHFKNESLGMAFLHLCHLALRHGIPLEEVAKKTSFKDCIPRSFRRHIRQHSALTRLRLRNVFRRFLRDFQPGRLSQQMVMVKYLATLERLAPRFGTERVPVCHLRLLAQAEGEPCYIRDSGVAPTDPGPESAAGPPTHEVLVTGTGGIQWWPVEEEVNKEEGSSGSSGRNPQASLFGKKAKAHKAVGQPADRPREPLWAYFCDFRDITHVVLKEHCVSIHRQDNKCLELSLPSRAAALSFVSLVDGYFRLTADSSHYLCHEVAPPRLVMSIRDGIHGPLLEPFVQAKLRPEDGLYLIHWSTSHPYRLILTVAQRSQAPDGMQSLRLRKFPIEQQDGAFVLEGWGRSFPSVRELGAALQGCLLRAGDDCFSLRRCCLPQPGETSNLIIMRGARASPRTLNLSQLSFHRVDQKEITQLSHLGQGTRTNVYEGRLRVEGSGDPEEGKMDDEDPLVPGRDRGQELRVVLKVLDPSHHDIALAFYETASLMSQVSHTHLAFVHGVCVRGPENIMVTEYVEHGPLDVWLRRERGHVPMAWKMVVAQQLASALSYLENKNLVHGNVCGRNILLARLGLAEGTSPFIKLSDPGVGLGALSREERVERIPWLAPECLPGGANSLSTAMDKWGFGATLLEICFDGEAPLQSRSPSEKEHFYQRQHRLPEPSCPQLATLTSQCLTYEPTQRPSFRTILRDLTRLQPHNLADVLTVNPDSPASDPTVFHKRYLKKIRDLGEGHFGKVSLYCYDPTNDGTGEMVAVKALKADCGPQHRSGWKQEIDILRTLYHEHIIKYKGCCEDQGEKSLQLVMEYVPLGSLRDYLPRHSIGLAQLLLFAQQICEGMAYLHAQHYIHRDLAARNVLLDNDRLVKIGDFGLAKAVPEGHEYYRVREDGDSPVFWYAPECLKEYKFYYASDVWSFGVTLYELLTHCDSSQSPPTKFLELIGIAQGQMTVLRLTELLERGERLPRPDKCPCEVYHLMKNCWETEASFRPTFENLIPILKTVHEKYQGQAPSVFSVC

[18] = biological target: Histamine H2 receptor (Homo sapiens) (UniProt P25021); conditions: Compound concentration 10.0 uM
Chain of Histamine H2 receptor (Homo sapiens) (P25021 whole entry): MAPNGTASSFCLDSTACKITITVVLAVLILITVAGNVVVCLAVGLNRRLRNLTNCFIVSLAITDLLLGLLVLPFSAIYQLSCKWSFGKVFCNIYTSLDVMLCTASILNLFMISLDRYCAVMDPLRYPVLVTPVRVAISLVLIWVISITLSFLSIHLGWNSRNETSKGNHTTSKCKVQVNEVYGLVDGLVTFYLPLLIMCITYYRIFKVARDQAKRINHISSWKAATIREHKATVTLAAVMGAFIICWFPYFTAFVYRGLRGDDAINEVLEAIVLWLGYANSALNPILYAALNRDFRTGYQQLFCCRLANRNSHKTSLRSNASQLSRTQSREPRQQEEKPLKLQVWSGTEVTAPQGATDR

[19] = biological target: T2, Alpha-2A adrenergic receptor (Homo sapiens) (UniProt P08913); conditions: Compound concentration 10.0 uM
T2 sequence (whole entry): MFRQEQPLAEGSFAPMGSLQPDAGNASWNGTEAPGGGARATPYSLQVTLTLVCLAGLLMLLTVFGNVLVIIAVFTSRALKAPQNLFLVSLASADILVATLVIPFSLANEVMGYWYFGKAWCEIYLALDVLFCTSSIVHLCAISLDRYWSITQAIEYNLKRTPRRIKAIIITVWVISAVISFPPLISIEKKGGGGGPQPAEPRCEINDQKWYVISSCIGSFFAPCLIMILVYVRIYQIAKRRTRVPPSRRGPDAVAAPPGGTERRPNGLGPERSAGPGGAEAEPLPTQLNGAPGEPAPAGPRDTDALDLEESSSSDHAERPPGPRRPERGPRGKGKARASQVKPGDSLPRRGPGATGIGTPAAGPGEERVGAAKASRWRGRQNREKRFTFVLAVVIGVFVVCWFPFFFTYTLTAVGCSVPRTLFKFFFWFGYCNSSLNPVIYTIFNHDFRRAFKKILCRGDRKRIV

[20] = Compound concentration 1000.0 nM
[21] = Compound concentration 100.0 nM

Chain of Bone morphogenetic protein receptor type-2 (Homo sapiens) (Q13873 whole entry): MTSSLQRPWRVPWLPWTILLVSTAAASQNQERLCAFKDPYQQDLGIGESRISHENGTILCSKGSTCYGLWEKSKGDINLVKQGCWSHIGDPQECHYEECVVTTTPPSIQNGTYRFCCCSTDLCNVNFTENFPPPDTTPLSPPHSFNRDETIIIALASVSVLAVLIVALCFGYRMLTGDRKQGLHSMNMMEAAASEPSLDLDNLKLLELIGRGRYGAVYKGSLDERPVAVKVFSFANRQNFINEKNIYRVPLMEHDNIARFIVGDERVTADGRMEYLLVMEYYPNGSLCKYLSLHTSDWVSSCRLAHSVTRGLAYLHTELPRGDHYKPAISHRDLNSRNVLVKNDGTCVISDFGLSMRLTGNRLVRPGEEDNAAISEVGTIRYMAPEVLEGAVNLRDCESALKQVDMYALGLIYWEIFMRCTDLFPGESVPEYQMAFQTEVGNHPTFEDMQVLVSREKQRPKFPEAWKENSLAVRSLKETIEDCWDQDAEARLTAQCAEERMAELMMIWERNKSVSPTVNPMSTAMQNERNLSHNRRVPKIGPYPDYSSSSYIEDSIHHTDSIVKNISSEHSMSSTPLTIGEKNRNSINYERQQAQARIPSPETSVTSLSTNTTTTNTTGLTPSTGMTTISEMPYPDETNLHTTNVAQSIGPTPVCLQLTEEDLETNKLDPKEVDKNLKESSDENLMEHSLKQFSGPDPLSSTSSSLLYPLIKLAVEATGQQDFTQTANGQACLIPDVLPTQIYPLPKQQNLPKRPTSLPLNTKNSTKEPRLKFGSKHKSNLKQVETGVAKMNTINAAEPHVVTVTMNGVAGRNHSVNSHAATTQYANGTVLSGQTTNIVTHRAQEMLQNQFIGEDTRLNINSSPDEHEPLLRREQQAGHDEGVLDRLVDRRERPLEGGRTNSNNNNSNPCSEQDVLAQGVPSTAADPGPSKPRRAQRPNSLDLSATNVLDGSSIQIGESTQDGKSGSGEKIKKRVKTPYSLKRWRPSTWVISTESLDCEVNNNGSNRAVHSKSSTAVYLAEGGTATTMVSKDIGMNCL
Chain of Cyclin-dependent kinase 19 (Homo sapiens) (Q9BWU1 whole entry): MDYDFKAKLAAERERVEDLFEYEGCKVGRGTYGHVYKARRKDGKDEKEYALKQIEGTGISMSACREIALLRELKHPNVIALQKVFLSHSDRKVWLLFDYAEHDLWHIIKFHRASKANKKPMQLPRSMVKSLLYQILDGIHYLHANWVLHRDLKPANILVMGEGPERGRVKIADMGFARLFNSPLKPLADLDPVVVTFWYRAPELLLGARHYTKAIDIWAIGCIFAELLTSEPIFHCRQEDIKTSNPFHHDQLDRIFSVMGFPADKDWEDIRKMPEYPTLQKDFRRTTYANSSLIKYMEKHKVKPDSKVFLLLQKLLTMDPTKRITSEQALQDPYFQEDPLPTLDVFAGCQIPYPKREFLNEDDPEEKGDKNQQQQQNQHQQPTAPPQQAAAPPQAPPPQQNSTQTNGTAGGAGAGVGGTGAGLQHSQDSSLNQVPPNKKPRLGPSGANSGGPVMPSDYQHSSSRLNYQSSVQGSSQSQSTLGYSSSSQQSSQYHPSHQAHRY

C[C@@H]1CN(c2cc(-c3nn(C)c4ccc(OC5(C)CC5)cc34)ncn2)C[C@H](C)O1 [MLi-2-NC]
inactive: residual activity [1, 20] 84% | residual activity [2, 20] 93% | residual activity [3, 20] 54% | residual activity [4, 20] 92% | residual activity [5, 20] 100% | residual activity [6, 20] 77% | residual activity [7, 20] 97% | residual activity [8, 20] 99% | residual activity [9, 20] 95% | residual activity [10, 20] 97% | residual activity [11, 20] 87% | residual activity [12, 20] 90% | residual activity [13, 20] 95% | residual activity [14, 20] 60% | residual activity [15, 20] 62% | residual activity [16, 20] 75% | residual activity [17, 20] 82% | inhibition [18] 18.4% | inhibition [19] 12.9%

C[C@@H]1CN(c2cc(-c3n[nH]c4ccc(OC5(C)CC5)cc34)ncn2)C[C@H](C)O1 [MLi-2]
inactive: residual activity [1, 21] 100% | residual activity [2, 21] 86% | residual activity [3, 21] 75% | residual activity [4, 21] 70% | residual activity [5, 21] 69% | residual activity [6, 21] 92% | residual activity [7, 21] 73% | residual activity [8, 21] 84% | residual activity [9, 21] 90% | residual activity [10, 21] 91% | residual activity [11, 21] 69% | residual activity [12, 21] 78% | residual activity [13, 21] 86% | residual activity [14, 21] 84% | residual activity [15, 21] 88% | residual activity [16, 21] 79% | residual activity [17, 21] 76% | inhibition [18] 6.26% | inhibition [19] -2.84%
